Target: T1, human tyrosinase enzyme (Homo sapiens, UniProt P14679)
T1 sequence (P14679 19-529): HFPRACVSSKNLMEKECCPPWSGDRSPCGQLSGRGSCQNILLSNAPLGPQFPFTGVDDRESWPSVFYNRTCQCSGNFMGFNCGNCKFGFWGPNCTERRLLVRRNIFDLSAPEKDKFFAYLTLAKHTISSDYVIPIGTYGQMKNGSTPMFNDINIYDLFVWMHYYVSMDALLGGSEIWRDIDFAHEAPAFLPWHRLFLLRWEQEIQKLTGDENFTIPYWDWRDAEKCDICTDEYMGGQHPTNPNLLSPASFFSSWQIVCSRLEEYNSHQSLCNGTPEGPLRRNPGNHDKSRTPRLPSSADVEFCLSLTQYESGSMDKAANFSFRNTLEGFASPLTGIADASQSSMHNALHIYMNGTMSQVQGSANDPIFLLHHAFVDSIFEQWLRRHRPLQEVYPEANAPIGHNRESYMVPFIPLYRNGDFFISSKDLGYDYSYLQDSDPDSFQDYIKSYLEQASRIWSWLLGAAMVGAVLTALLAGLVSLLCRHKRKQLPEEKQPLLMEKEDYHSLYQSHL
Test: human tyrosinase inhibition (procedure as for mushroom tyrosinase)
Format: biochemical
Conditions: sample at 7.5 ppm
Protocol: An indication of the efficacy of skin lightening was determined using an in-vitro tyrosinanse inhibition assay using mushroom tyrosinase. The assay comprised measuring O-diphenolase activities of mushroom tyrosinase with L-DOPA as substrate. This was determined spectrophotometrically by measuring the rate of dopachrome formation at 450 nm (ε=3700 M−1 cm−1). Inhibition studies were done by measuring the dopachrome formation in the presence of various extracts of plant material. The experiment was conducted using the following procedure:
The following stock solutions were prepared. 0.1 M phosphate buffer (KH2PO4, pH=6.5); 3.5 mM L-DOPA in phosphate buffer; 1 mg/ml mushroom tyrosinase enzyme (100 kU) in phosphate buffer. To the KH2PO4 buffer (q.s. to 200 μL) in a 96 well plate having flat bottom was added the desired sample (about 6 μl) followed by 8 μL of mushroom tyrosinase enzyme. This was left at room temperature in the dark for 15 min to enable incubation. Then L-DOPA (57 μL, […]) was added to the resultant solution and the progress of dopachrome formation was observed by measuring the absorbance at 450 nm (A450) on a Tecan spectrophotometer. Percent inhibition was calculated using (Control: without inhibitor) […]

% human tyrosinase inhibition: 40%
SMILES: CCc1ccc(O)cc1O [Example 5, ethyl resorcinol]

Reference: patent US20120195840A1, “PERSONAL CARE COMPOSITION” (priority 2009, published 2012)
